The nature of this series: Protein binding in rat plasma. The series is classed as ADME, organism-based. The conditions noted are these: read-out: PPB (converted).

As for `Cc1ccc(NS(=O)(=O)c2ccccc2)c(C(=O)O)c1`, the fraction unbound was 0.003.
Under `O=C(O)c1c(NS(=O)(=O)c2ccccc2)ccc2c1CCCC2` stands 0.002.

For the origin of these results see ChEMBL document CHEMBL1138052, “Discovery and optimization of anthranilic acid sulfonamides as inhibitors of methionine aminopeptidase-2: a structural basis for the reduction of albumin binding” (J Med Chem, 2006).
